Columns and labels:
p-Hsp27 in U937 cells = test: Inhibition of p-Hsp27 in LPS-stimulated U937 cells (ELISA); assay type: cell-based; details: Homo sapiens, U-937; PMA-differentiated U937, 10 ng/ml LPS 0.5 hours; read-out: U937 cell activity test p-HSP27 IC50
Procedure: U937 cells were treated with 20 ng/ml PMA for differentiation overnight, and after replacement with a fresh culture medium, the U937 cells were rested overnight. After differentiation, the U937 cell were digested and counted, and 25,000 cells per well were seeded in a 96-well plate until the cells adhered to the wall. A compound concentration gradient was prepared, the cells were pretreated with the compound for 1 hour (the highest final concentration of the compound was 1 μM, diluted in 3-fold concentration gradient), and 10 ng/ml LPS (Lipopolysaccharides from Escherichia coli O111:B4) was added for stimulation for 0.5 hours. After the cells were washed with PBS, the cells were lysed with a lysis solution. p-Hsp27 in the cell lysate was detected by using Phospho-HSP27 (S78/S82) DuoSet IC ELISA kit. For specific steps, reference could be made to the standard steps provided by the kit manufacturer.
Calculation of p-Hsp27 inhibition rate: Inhibition rate %=[(mean value of p-Hsp27 in positive control well−mean value of p-Hsp27 in sample well)/(mean value of p-Hsp27 in positive control well−mean value of p-Hsp27 in negative control well)]×100%, wherein the positive control well was a well without a compound (DMSO-treated well), and the negative control well was a well without LPS stimulation.
(§1) Dose response curve fitting: Log(inhibitor) vs. response−Variable slope (four parameters) in GraphPad Prism 6 was used for fitting equation analysis of the compound concentration and the corresponding inhibition rate, and the curve was fitted to obtain the IC50 value of the compound.
(§2) The fitting calculation equation was Y=Bottom+(Top−Bottom)/(1+10^((Log IC50−X)*HillSlope)).

TNF-α in U937 cells = test: Inhibition of the expression level of TNF-α in LPS-stimulated U937 cells (ELISA); assay type: cell-based; details: Homo sapiens, U-937; PMA-differentiated U937, 10 ng/ml LPS 4 hours; read-out: U937 cell activity test TNF-α IC50
Procedure: U937 cells were treated with 20 ng/ml PMA for differentiation overnight, and after replacement with a fresh culture medium, the U937 cells were rested overnight. After differentiation, the U937 cells were digested and counted, and 50,000 cells per well were seeded in a 96-well plate until the cells adhered to the wall. A compound concentration gradient was prepared, the cells were pretreated with the compound for 1 hour (the highest final concentration of the compound was 1 μM, diluted in 3-fold concentration gradient), and 10 ng/ml LPS (Lipopolysaccharides from Escherichia coli O111:B4) was added for stimulation for 4 hours. Thereafter, the culture supernatant was collected by centrifugation and used for subsequent ELISA to detect the concentration of TNF-α in the supernatant. The concentration of TNF-α was detected according to the standard steps provided by the ELISA kit manufacturer.
A standard curve was plotted by a linear regression method from a TNF-α standard, and the concentration of TNF-α in a sample was derived by conversion according to the standard curve.
Calculation of inhibition rate: Inhibition rate %=[(mean value of TNF-α concentration in positive control well−mean value of TNF-α concentration in sample well)/(mean value of TNF-α concentration in positive control well−mean value of TNF-α concentration in negative control well)]×100%, wherein the positive control well was a well without a compound (DMSO-treated well), and the negative control well was a culture medium well.
as §1, with “compound. The fitting calculation equation was Y=Bottom+(Top−Bottom)/(1+10^((Log IC50−X)*HillSlope)).” for “compound.”

p38α/MK2 = target: T1, p38α/MK2 (Homo sapiens, UniProt P49137+Q16539); test: Inhibition of p38α/MK2 enzyme activity (TR-FRET, ULight-CREBtide); assay type: biochemical; details: for IC50: 0.06 nM p38a, 1.2 nM MK2, 25 μM ATP, read-out: p38/MK2 IC50; for Selectivity ratio (p38 IC50 / p38/MK2 IC50): selectivity ratio p38 IC50 over p38/MK2 IC50
T1 construct: purchased R & D systems (p38 alpha); Thermo (MK2) 5477-KS-010; PV3316
T1 sequence (Q16539 whole entry): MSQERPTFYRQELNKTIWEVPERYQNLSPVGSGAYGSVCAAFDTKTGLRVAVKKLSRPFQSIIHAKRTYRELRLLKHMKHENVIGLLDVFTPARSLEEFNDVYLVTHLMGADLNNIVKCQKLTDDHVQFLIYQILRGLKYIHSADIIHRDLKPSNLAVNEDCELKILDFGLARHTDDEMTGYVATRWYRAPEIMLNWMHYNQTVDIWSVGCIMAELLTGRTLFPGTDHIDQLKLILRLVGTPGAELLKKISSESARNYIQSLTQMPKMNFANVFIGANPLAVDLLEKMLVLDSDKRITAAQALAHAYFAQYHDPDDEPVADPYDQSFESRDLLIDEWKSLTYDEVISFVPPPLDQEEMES
T1 sequence (P49137 whole entry): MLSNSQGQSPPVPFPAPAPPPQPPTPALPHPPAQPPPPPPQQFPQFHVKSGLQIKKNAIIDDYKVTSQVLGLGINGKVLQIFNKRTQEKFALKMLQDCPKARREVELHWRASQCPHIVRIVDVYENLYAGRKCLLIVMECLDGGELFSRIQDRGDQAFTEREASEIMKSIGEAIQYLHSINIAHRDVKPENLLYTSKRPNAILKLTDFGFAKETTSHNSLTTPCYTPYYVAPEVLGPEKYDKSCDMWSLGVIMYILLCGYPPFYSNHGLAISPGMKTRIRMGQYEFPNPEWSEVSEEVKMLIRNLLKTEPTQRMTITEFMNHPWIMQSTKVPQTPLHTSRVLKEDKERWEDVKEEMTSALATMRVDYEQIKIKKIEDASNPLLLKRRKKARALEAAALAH
Procedure: (§3) 50 nM ULight-CREBtide and 25 μM ATP (ATP Solution) were added, and the mixture was reacted at room temperature for 1.5 hours. An equal volume of a detection and termination mixed solution (1×LANCE detection buffer containing 20 mM EDTA and 2 nM Europium-anti-phospho-CREB) was added, the mixture was mixed until uniform and centrifuged, a plate sealing film was attached, and a reaction was performed at room temperature for 1 hour. TR-FRET program of the EnVision instrument was used to read the plate, and the fluorescence value of each well was detected at 665 nm/615 nm.
(§4) Calculation was performed on the raw data (665 nm/615 nm reading ratio) according to the following formula to obtain the inhibition rate. Inhibition rate %=[(mean value in positive control well−value in sample well)/(mean value in positive control well−mean value in negative control well)]×100, wherein the positive control well was a reaction well without a compound […], and the negative control well was a reaction wells without an enzyme.
(§5) Log(inhibitor) vs. response−Variable slope (four parameters) in GraphPad Prism 6 was used for fitting equation analysis of the compound concentration and the corresponding inhibition rate, and the curve was fitted to obtain the IC50 value of the compound.
as §2

[1] = target: T2, p38a (Active p38 alpha Protein) (Homo sapiens, UniProt Q16539); test: Inhibition of p38 enzyme activity (TR-FRET, ULight-MBP); assay type: biochemical; details: 3 nM p38a, 50 μM ATP
T2 construct: purchased R & D systems 5477-KS-010
T2 sequence (Q16539 whole entry): as the sequence (Q16539 whole entry) above
Procedure: as §3, with “Experimental method for determining the p38 enzyme activity: 3 nM p38a (Active p38 alpha Protein) and compounds diluted in a certain concentration gradient were incubated in 1× enzyme reaction buffer (50 mM HEPES pH 7.5, 1 mM EGTA, 10 mM MgCl2, 2 mM DTT, 0.01% Tween-20) for 1 hour. 50” for “50”, “ULight-MBP” for “ULight-CREBtide”, “50” for “25”, “(ATP 10 mM” for “(ATP”, “Europium-anti-P-MBP)” for “Europium-anti-phospho-CREB)”
as §4, §5, §2

Compound	IC50 (p-Hsp27 in U937 cells) [nM]	IC50 (TNF-α in U937 cells) [nM]	IC50 (p38α/MK2) [nM]	Selectivity ratio (p38 IC50 / p38/MK2 IC50) (p38α/MK2)	IC50 [1] [nM]
[2H]C([2H])(Oc1cc2n(c(=O)c1Cl)-c1cc(-c3ccnc(C(C)(C)O)n3)ncc1CCCC2)c1ncc(F)cc1F [Example 1-1, (S)-11-Chloro-10-((3,5-difluoropyridin-2-yl)methoxy-d2)-2-(2-(2-hydroxypropan-2-yl)pyrimidin-4-yl)-5,6,7,8-tetrahydro-12H-dipyrido[1,2-a:3′,4′-g]azol-12-one]	0.17	1.2	0.71	109	77.4
[2H]C([2H])(Oc1cc2n(c(=O)c1Cl)-c1cc(-c3ccnc(C(C)(C)NC(C)=O)n3)ncc1CCCC2)c1ncc(F)cc1F [Example 4-1, (S)—N-(2-(4-(11-chloro-10-((3,5-difluoropyridin-2-yl)methoxy-d2)-12-carbonyl-6,7,8,12-tetrahydro-5H-dipyrido[1,2-a:3′,4′-g]azocin-2-yl)pyrimidin-2-yl)propan-2-yl)acetamide]	0.35	1.2	–	–	–
[2H]C([2H])(Oc1cc(C)n(-c2cc(-n3cccc(C(C)(C)O)c3=O)ncc2Cl)c(=O)c1Cl)c1ncc(F)cc1F [Example 10-1, (S)-3″,5′-dichloro-4″-((3,5-difluoropyridin-2-yl)methoxy-d2)-3-(2-hydroxypropan-2-yl)-6″-methyl-2H,2″H-[1,2′:4′,1″-terpyridine]-2,2″-dione]	0.13	0.1	0.13	–	–
[2H]C([2H])(Oc1cc(C)n(-c2cc(-n3cccc(C(C)(C)O)c3=O)ncc2C)c(=O)c1Cl)c1ncc(F)cc1F [Example 11-1, (S)-3″-chloro-4″-((3,5-difluoropyridin-2-yl)methoxy-d2)-3-(2-hydroxypropan-2-yl)-5′,6″-dimethyl-2H,2″H-[1,2′:4′,1″-terpyridine]-2,2″-dione]	0.1	0.21	0.28	346	96.9
[2H]C([2H])(Oc1cc(C)n(-c2cc(-n3cccc(C(C)(C)NC(C)=O)c3=O)ncc2C)c(=O)c1Cl)c1ccc(F)cc1F [Example 13-1, (S)—N-(2-(3″-chloro-4″-((2,4-difluorophenyl)methoxy-d2)-5′,6″-dimethyl-2,2″-dicarbonyl-2H,2″H-[1,2′:4′,1″-terpyridin]-3-yl)propan-2-yl)acetamide]	0.56	0.51	0.12	138	16.5
[2H]C([2H])(Oc1cc2n(c(=O)c1Cl)-c1cc(-c3ccnc(C(C)(C)O)n3)ncc1/C=C\CC2)c1ncc(F)cc1F [Example 16-1, (S,Z)-11-chloro-10-((3,5-difluoropyridin-2-yl)methoxy-d2)-2-(2-(2-hydroxypropan-2-yl)pyrimidin-4-yl)-7,8-dihydro-12H-dipyrido[1,2-a:3′,4′-g]azocin-12-one]	0.28	0.85	0.49	–	–
[2H]C([2H])(Oc1cc2n(c(=O)c1Cl)-c1cc(-n3cc(F)c(C(C)(C)NC(C)=O)n3)ncc1/C=C\CC2)c1ncc(F)cc1F [Example 18-1, (S,Z)—N-(2-(1-(11-chloro-10-((3,5-difluoropyridin-2-yl)methoxy-d2)-12-carbonyl-8,12-dihydro-7H-dipyrido[1,2-a:3′,4′-g]azocin-2-yl)-4-fluoro-1H-pyrazol-3-yl)propan-2-yl)acetamide]	–	–	0.12	–	–
[2H]C([2H])(Oc1cc2n(c(=O)c1Cl)-c1cc(-n3cccc(C(C)(C)O)c3=O)ncc1/C=C\CC2)c1ncc(F)cc1F [Example 19-1, (S,Z)-11-chloro-10-((3,5-difluoropyridin-2-yl)methoxy-d2)-2-(3-(2-hydroxypropan-2-yl)-2-carbonylpyridin-1(2H)-yl)-7,8-dihydro-12H-dipyrido[1,2-a:3′,4′-g]azocin-12-one]	–	–	0.12	–	–

Other lines, results leading:

IC50 (p-Hsp27 in U937 cells) [nM]	IC50 (TNF-α in U937 cells) [nM]	IC50 (p38α/MK2) [nM]	Selectivity ratio (p38 IC50 / p38/MK2 IC50) (p38α/MK2)	IC50 [1] [nM]	Compound
0.28	0.33	0.42	–	–	[2H]C([2H])(Oc1cc2n(c(=O)c1Cl)-c1cc(-n3ccc(C(C)(C)O)n3)ncc1CCCC2)c1ncc(F)cc1F [Example 2-1, (S)-11-chloro-10-((3,5-difluoropyridin-2-yl)methoxy-d2)-2-(3-(2-hydroxypropan-2-yl)-1H-pyrazol-1-yl)-5,6,7,8-tetrahydro-12H-dipyrido[1,2-a:3′,4′-g]azol-12-one]
0.15	0.18	0.18	–	–	[2H]C([2H])(Oc1cc2n(c(=O)c1Cl)-c1cc(-n3cc(F)c(C(C)(C)NC(C)=O)n3)ncc1CCCC2)c1ncc(F)cc1F [Example 3-1, (S)—N-(2-(1-(11-chloro-10-((3,5-difluoropyridin-2-yl)methoxy-d2)-12-carbonyl-6,7,8,12-tetrahydro-5H-dipyrido[1,2-a:3′,4′-g]azocin-2-yl)-4-fluoro-1H-pyrazol-3-yl)propan-2-yl)acetamide]
–	–	0.79	666	526	[2H]C([2H])(Oc1cc(C)n(-c2cc(-n3cccc(C(C)(C)NC(C)=O)c3=O)ncc2C)c(=O)c1Cl)c1ncc(F)cc1F [Example 5-1, (S)—N-(2-(3″-chloro-4″-((3,5-difluoropyridin-2-yl)methoxy-d2)-5′,6″-dimethyl-2,2″-dicarbonyl-2H,2″H-[1,2′:4′,1″-terpyridin]-3-yl)propan-2-yl)acetamide]
0.22	0.19	0.25	–	–	[2H]C([2H])(Oc1cc2n(c(=O)c1Cl)-c1c(cnc(-n3ccc(C(C)(C)O)n3)c1F)CCCC2)c1ncc(F)cc1F [Example 8-1, (R)-11-chloro-10-((3,5-difluoropyridin-2-yl)methoxy-d2)-1-fluoro-2-(3-(2-hydroxypropan-2-yl)-1H-pyrazol-1-yl)-5,6,7,8-tetrahydro-12H-dipyrido[1,2-a:3′,4′-g]azocin-12-one]
–	–	0.27	–	–	[2H]C([2H])(Oc1cc2n(c(=O)c1Cl)-c1cc(-n3ccc(C(C)(C)O)n3)ncc1/C=C\CC2)c1ncc(F)cc1F [Example 17-1, (S,Z)-11-chloro-10-((3,5-difluoropyridin-2-yl)methoxy-d2)-2-(3-(2-hydroxypropan-2-yl)-1H-pyrazol-1-yl)-7,8-dihydro-12H-dipyrido[1,2-a:3′,4′-g]azocin-12-one]

From US20250066360A1, “PYRIDINE-CONTAINING POLYCYCLIC DERIVATIVE, AND PREPARATION METHOD THEREFOR AND USE THEREOF” (SHANGHAI HANSOH BIOMEDICAL CO., LTD., priority 2022, published 2025)
